In this assay the target is T1, 15-PGDH (Homo sapiens, UniProt P15428).
T1 construct: made in house
T1 sequence (P15428 1-266): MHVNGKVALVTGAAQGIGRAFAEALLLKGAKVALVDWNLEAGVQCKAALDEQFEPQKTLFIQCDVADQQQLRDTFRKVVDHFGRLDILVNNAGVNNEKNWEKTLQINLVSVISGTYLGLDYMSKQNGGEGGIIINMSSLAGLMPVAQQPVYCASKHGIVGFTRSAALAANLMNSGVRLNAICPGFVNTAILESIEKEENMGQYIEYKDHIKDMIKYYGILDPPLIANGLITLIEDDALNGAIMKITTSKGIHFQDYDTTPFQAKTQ
In words: Test on 15-PGDH (spectrophotometric, NAD/PGE2, 340 nm). The settings on record: for IC50: pH 7.4 Tris buffer, 37° C., 50 μM prostaglandin E2, 1.5 mM β-NAD, read-out: IC50 (concentration reducing the enzymatic activity of 15-PGDH by 50%, IC50dh). Format: biochemical. The procedure:
The enzyme 15-PGDH is obtained as described in FR 02/05067 filed in the name of L'Oreal, as a suspension in a medium adjusted to a concentration of 0.3 mg/mL and then blocked at −80° C. For the purposes of the test, this suspension is thawed and stored in ice.
In parallel, a 100 mM, pH 7.4 Tris buffer containing 0.1 mM of dithiothreitol (D5545, Sigma-Aldrich, L'isle D'Abeau Chesne, BP 701, 38297, Saint Quentin Fallavier), 1.5 mM of β-NAD (N6522, Sigma-Aldrich, L'isle D'Abeau Chesne, BP 701, 38297, Saint Quentin Fallavier), and 50 μM of prostaglandin E2 (P4172, Sigma-Aldrich, L'isle D'Abeau Chesne, BP 701, 38297, Saint Quentin Fallavier) is prepared.
0.965 ml of this buffer (brought to 37° C. beforehand) is introduced into the cuvette of a spectrophotometer (Perkin-Elmer, Lambda 2) thermostatically maintained at 37° C., the measuring wavelength of which is set at 340 nm. 0.035 mL of enzymatic suspension at 37° C. is introduced into the cuvette concomitantly with the recording (corresponding to an increase in the optical density at 340 nm). The maximum reaction rate is recorded.

Turning to `CSCCC(=O)NCc1ccc(C)o1` [Example 1, N-[(5-methyl-2-furyl)methyl]-3-(methylsulfanyl)propanamide], the IC50 stood at 0.8 µM.
With `CSCCC(=O)NCc1ccco1` [Example 2, N-(2-furylmethyl)-3-(methylsulfanyl)propanamide], the IC50 worked out at 9.8 µM.
With `COc1ccc(CNC(=O)CCSC)cc1` [Example 3, N-(4-methoxybenzyl)-3-(methylsulfanyl)propanamide], the IC50 is 6 µM.
Consider `CCCCCCNC(=O)CCSC` [Example 4, N-hexyl-3-(methylsulfanyl)propanamide], for which the IC50 is 12 µM.
Under “at 100 μM”, `CSCCC(=O)Nc1ccccc1C(F)(F)F` [Example 5, 3-(methylsulfanyl)-N-[2-(trifluoromethyl)phenyl]propanamide] came in with an inhibition at 100 µM of 21%.
Take `CSCCC(=O)NC(C)c1ccccc1` (centres unmarked) [Example 7, 3-(methylsulfanyl)-N-(1-phenylethyl)propanamide]: the IC50 was 14.7 µM.
On the same count and under the same terms, next, `CSCCC(=O)NC1CCC1` [Example 8, N-cyclobutyl-3-(methylsulfanyl)propanamide]: 47 µM; “N-benzyl-3-(methylsulfanyl)propanamide [Example 6]”: 1.6 µM.

These data come from patent publication US20080025940A1, “Administration of 3-sulfanylpropanamide compounds for stimulating hair and eyelash growth and/or for stopping the loss and/or limiting the depigmentation thereof” (L'OREAL, priority 2005, published 2008).
